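Assay format: 96-well plates, 48-hour exposure. Here, GI50 denotes the concentration required for 50% inhibition of growth.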 Calls of active or inactive are those of the source. No stated cut-off is given here; in the data, active = GI50 up to about 1.1 µM and inactive = higher.
How the values were obtained:
Test in all cases: inhibition of tumour cell growth, NCI panel, 48 h
[1] = system: RXF 393
[2] = system: SK-MEL-2
[3] = system: SF-268
[4] = system: 786-0
[5] = system: HOP-92
[6] = system: MDA-MB-231
[7] = system: MDA-MB-435
[8] = system: UACC-62
[9] = system: HOP-62
[10] = system: MCF7
[11] = system: NCI-H522
[12] = system: ACHN
[13] = system: M14
[14] = system: T47D
[15] = system: SN12C
[16] = system: SK-MEL-28
[17] = system: OVCAR-3
[18] = system: SNB-75
[19] = system: RPMI-8226
[20] = system: LOX IMVI
[21] = system: NCI-H23
[22] = system: PC-3
[23] = system: EKVX
[24] = system: SW-620
[25] = system: TK-10
[26] = system: A549
[27] = system: IGROV-1
[28] = system: CAKI-1
[29] = system: HL-60
[30] = system: Hs-578T
[31] = system: OVCAR-8
[32] = system: KM12
[33] = system: SNB-19
[34] = system: HCT-15
[35] = system: SK-MEL-5
[36] = system: A498
[37] = system: OVCAR-4
[38] = system: Malme-3M
[39] = system: SF-295
[40] = system: SF-539
[41] = system: SK-OV-3
[42] = system: NCI-H226
[43] = system: DU-145
[44] = system: UO-31
[45] = system: OVCAR-5
[46] = system: COLO 205
[47] = system: NCI/ADR-RES
[48] = system: HCT-116
[49] = system: CCRF-CEM
[50] = system: MDA-N
[51] = system: U-251
[52] = system: NCI-H460
[53] = system: BT-549
[54] = system: HT-29
[55] = system: K562
[56] = system: MOLT-4
[57] = system: UACC-257
[58] = system: HCC 2998
[59] = system: SR

Measured: GI50

O=C1c2ccccc2C(O)(O)C1(O)C1(O)C(=O)c2ccccc2C1(O)O (centres undefined)
inactive: [1] 26.6 µM | [2] > 100 µM | [3] > 100 µM | [4] 38.9 µM | [5] 37.6 µM | [6] > 100 µM | [7] 16.6 µM | [8] 86.9 µM | [9] 23.4 µM | [10] 16.8 µM | [11] 19.4 µM | [12] 21.3 µM | [13] 35 µM | [14] 23.1 µM | [15] 16.1 µM | [16] > 100 µM | [17] 25.1 µM | [18] 15.6 µM | [19] 51.2 µM | [20] 23 µM | [21] 20.8 µM | [22] > 100 µM | [23] 36.3 µM | [24] 35.3 µM | [25] 23 µM | [26] 30.1 µM | [27] 41.7 µM | [28] 29.6 µM | [29] 18.9 µM | [30] > 100 µM | [31] 35.9 µM | [32] 39.6 µM | [33] 91.8 µM | [35] 20.1 µM | [36] > 100 µM | [37] 45.5 µM | [38] 22.1 µM | [39] 34.8 µM | [40] 24.2 µM | [41] > 100 µM | [42] > 100 µM | [43] 57.3 µM | [44] 19.6 µM | [45] 65.2 µM | [46] 20.7 µM | [47] 69.7 µM | [48] 23.6 µM | [49] 16.9 µM | [50] 21.7 µM | [51] 37.2 µM | [52] 18.8 µM | [53] 55.6 µM | [54] > 100 µM
21.8 µM: [34]

CCOC(=O)c1c(NC(=O)c2ccccc2)sc2c1CCCC2
inactive: [1] > 100 µM | [2] > 100 µM | [3] > 100 µM | [4] > 100 µM | [6] 81.7 µM | [7] > 100 µM | [8] > 100 µM | [10] > 100 µM | [12] > 100 µM | [13] > 100 µM | [14] > 100 µM | [15] > 100 µM | [16] > 100 µM | [17] > 100 µM | [18] 7.23 µM | [55] > 100 µM | [19] > 100 µM | [20] > 100 µM | [56] > 100 µM | [21] > 100 µM | [22] > 100 µM | [23] > 100 µM | [24] > 100 µM | [25] > 100 µM | [27] > 100 µM | [28] > 100 µM | [29] > 100 µM | [30] > 100 µM | [31] > 100 µM | [32] > 100 µM | [33] > 100 µM | [35] > 100 µM | [36] > 100 µM | [38] 78.9 µM | [39] > 100 µM | [40] > 100 µM | [41] > 100 µM | [42] > 100 µM | [43] > 100 µM | [44] > 100 µM | [45] > 100 µM | [46] > 100 µM | [47] > 100 µM | [48] > 100 µM | [57] > 100 µM | [49] > 100 µM | [50] > 100 µM | [51] > 100 µM | [53] > 100 µM | [54] > 100 µM
> 100 µM: [34]

Clc1ccc2c(c1)CC1C[N+]3=C(CCCCC3)C1=C2 (centres undefined)
inactive: [1] > 100 µM | [2] 28.8 µM | [3] 50.8 µM | [4] > 100 µM | [5] 7.1 µM | [6] 33 µM | [7] 59.2 µM | [8] > 100 µM | [9] > 100 µM | [10] 64 µM | [11] 38.8 µM | [12] > 100 µM | [13] 57.3 µM | [14] 29.6 µM | [15] 80.4 µM | [16] > 100 µM | [17] 59 µM | [55] > 100 µM | [20] 43.3 µM | [56] > 100 µM | [21] 37.4 µM | [22] 42.1 µM | [23] 45.6 µM | [24] > 100 µM | [25] 69.2 µM | [26] 30.3 µM | [27] 37.2 µM | [28] > 100 µM | [29] > 100 µM | [30] 85.3 µM | [31] 28.3 µM | [32] 50.5 µM | [33] 51.8 µM | [35] 30.3 µM | [36] 18.3 µM | [37] 54.8 µM | [38] 63 µM | [39] 64.1 µM | [41] > 100 µM | [42] 69.7 µM | [43] > 100 µM | [44] > 100 µM | [45] > 100 µM | [46] 28.9 µM | [47] > 100 µM | [48] > 100 µM | [57] 28.8 µM | [49] > 100 µM | [50] 94.2 µM | [51] 23.7 µM | [52] 33 µM | [53] 26.5 µM | [54] 37.8 µM
> 100 µM: [34]
active: [18] 0.349 µM

COC(=O)c1cc(-c2c[nH]cc2C(=O)OCc2ccccc2)cn1S(=O)(=O)c1ccc(C)cc1
> 100 µM: [34]
inactive: [1] > 100 µM | [2] > 100 µM | [3] > 100 µM | [4] > 100 µM | [6] > 100 µM | [8] > 100 µM | [9] > 100 µM | [10] 22.3 µM | [11] > 100 µM | [12] > 100 µM | [13] > 100 µM | [14] 4.71 µM | [15] > 100 µM | [17] > 100 µM | [18] > 100 µM | [55] 7.5 µM | [20] 22.4 µM | [58] > 100 µM | [56] > 100 µM | [21] 6.61 µM | [22] 36.7 µM | [23] 8.89 µM | [25] > 100 µM | [26] > 100 µM | [27] > 100 µM | [28] > 100 µM | [30] > 100 µM | [31] > 100 µM | [32] > 100 µM | [33] > 100 µM | [35] 4.16 µM | [36] > 100 µM | [37] > 100 µM | [38] > 100 µM | [39] > 100 µM | [40] > 100 µM | [41] > 100 µM | [43] > 100 µM | [44] > 100 µM | [45] > 100 µM | [46] > 100 µM | [47] 66.7 µM | [48] > 100 µM | [57] 7.93 µM | [49] > 100 µM | [59] > 100 µM | [50] > 100 µM | [51] > 10 µM | [52] 57.3 µM | [53] 71.4 µM | [54] > 100 µM

COc1ccc(OC)c(CC(=O)c2ccc(O)c(C(=O)NCCc3ccc(F)cc3)c2)c1
active: [1] 1.09 µM | [7] 0.615 µM | [59] 0.502 µM | [50] 0.498 µM
2.3 µM: [34]
inactive: [2] 2.96 µM | [3] 4.13 µM | [4] 4.18 µM | [5] 10.8 µM | [6] 4.74 µM | [9] 1.54 µM | [10] 2.99 µM | [11] 2.79 µM | [12] 10.5 µM | [13] 2.28 µM | [14] 2.8 µM | [16] 6.41 µM | [17] 1.43 µM | [18] 2.55 µM | [55] 3.81 µM | [19] 4.1 µM | [20] 6.95 µM | [58] 4.63 µM | [56] 5.04 µM | [21] 3.12 µM | [23] 7.13 µM | [24] 4.18 µM | [25] 7.23 µM | [26] 4.49 µM | [27] 3.27 µM | [28] 3.26 µM | [29] 2.16 µM | [30] 3.1 µM | [31] 4.23 µM | [32] 3.42 µM | [33] 3.79 µM | [35] 1.73 µM | [36] 12.2 µM | [37] 4.06 µM | [38] 2.2 µM | [39] 2.82 µM | [41] 2.69 µM | [43] 1.73 µM | [44] 4.76 µM | [45] 7.36 µM | [46] 16.9 µM | [47] 2.21 µM | [57] 10.5 µM | [51] 3.6 µM | [52] 3.85 µM | [53] 12 µM | [54] 9.86 µM
